The test system of one series is CYP1A. Put plainly: Induction of CYP1A activity in sandwich-cultured rat hepatocytes (phenacetin probe). The conditions noted are these: 2.5 µM, 72 h. On the procedure: (§1) Rat primary hepatocytes were prepared according to a modified, two-step collagenase perfusion method. Viability of hepatocyte was determined by Trypan Blue exclusion. Only those hepatocyte preparations with viability greater than 90% were used for further studies. Hepatocyte suspensions were prepared with DMEM-F12 containing 10% FBS, 100 U/mL penicillin, 100 µg/mL streptomycin, 1 µM DEX and 4 µg/mL insulin. Then, hepatocyte suspensions were seeded into the pre-coated wells at a density of 1 × 10^6 cells/well in 24-well plates. […] Medium was changed daily. On day 4, the cultured hepatocytes were washed twice with Hank’s balanced salt solution containing 25 mM HEPES and incubated with 0.5 mL of the same buffer containing 50 μM phenacetin and 5 μM midazolam at 37 °C for 1h. At the end of incubation, 0.5 mL aliquots of the media were transferred to 1.5-mL test tubes and stored at −20 °C until analysis. All incubations were conducted in triplicate.
(§2) Results were analyzed by a two-factor ANOVA. A p < 0.05 was considered statistically significant. […] Microsoft Excel (Microsoft, Redmond, WA, USA) was used to calculate IC50 estimates by linear transformation of the raw data. The data were corrected for both background and control activities.

The next series concerns CYP3A. The series can be described thus: Induction of CYP3A activity in sandwich-cultured rat hepatocytes (midazolam probe). The conditions noted are these: 1 mM, 72 h. Here is the method:
as §1, §2

The subject of a further series is T1, CYP2C9 (2C9).
T1 construct: native enzyme in rat liver microsomes (RLMs)
The series can be described thus: Inhibition of isoform-selective probe metabolism (phenacetin 1A2, tolbutamide 2C9, bupropion 2B6, dextromethorphan 2D6, midazolam 3A) in rat liver microsomes (0.4 mg/mL) with an NADPH-generating system, 0.5-500 uM TCAS, 30 min at 37 °C, LC-MS/MS readout. The conditions noted are these: SD, n = 3. The series is classed as biochemical. Here is the method: (§3) The inhibitory effects of TCAS on the activities of CYP1A2, CYP2C9, CYP2D6, CYP2B6 and CYP3A were tested in RLMs and HLMs using probes selective for each isoform. The reaction probes used were as follows: phenacetin for CYP1A2; tolbutamide for CYP2C9; dextromethorphan for CYP2D6; midazolam for CYP3A and bupropion for CYP2B6. Incubation conditions specific to each isoform were linear with time, substrate, and protein concentrations as detailed in our previous studies. Isoform-specific substrate probes were incubated in duplicate at 37 °C with RLMs and HLMs and an NADPH-generating system in the absence (control) or presence of various concentrations (0.5, 1.5, 5, 15, 50, 100, and 500 µM) of TCAS. A 5-min pre-incubation was carried out before the reaction was initiated by adding 0.4 mg/mL of RLMs and HLMs. After incubation for 30 min, the reaction was terminated with 400 μL of ice-cold stop solution.
(§4) Results were analyzed by a two-factor ANOVA. A p < 0.05 was considered statistically significant.
For orientation: Microsomes from liver hold many membrane-bound enzymes, among them those of drug oxidation.

A further series concerns T2, CYP3A4 (3A4).
T2 construct: native enzyme in rat liver microsomes (RLMs)
The series is described as above. The series is classed as biochemical. Conditions: SD, n = 3. On the procedure:
as §3, §4

The subject of another series is T3, CYP2D6 (2D6).
T3 construct: native enzyme in rat liver microsomes (RLMs)
Described as above. Type of series: biochemical. Conditions: SD, n = 3. Here is the method: as §3, §4

The next series deals with T4, CYP2B6 (2B6).
T4 construct: native enzyme in rat liver microsomes (RLMs)
Described as above. Conditions: SD, n = 3. Type of series: biochemical. Here is the method: as §3, §4

Another series deals with CYP2C9 (Homo sapiens, UniProt P11712). The series can be described thus: in vitro. Conditions: microsomes, pH 7.4.
In another series the target is CYP1A2 (Homo sapiens, UniProt P05177). Put plainly: TCAS incubation with human liver microsomes plus CYP1A2-selective inhibitor. Conditions: pH 7.4, probe TCAS (100 µM).
CYP1A2, sequence (P05177 whole entry): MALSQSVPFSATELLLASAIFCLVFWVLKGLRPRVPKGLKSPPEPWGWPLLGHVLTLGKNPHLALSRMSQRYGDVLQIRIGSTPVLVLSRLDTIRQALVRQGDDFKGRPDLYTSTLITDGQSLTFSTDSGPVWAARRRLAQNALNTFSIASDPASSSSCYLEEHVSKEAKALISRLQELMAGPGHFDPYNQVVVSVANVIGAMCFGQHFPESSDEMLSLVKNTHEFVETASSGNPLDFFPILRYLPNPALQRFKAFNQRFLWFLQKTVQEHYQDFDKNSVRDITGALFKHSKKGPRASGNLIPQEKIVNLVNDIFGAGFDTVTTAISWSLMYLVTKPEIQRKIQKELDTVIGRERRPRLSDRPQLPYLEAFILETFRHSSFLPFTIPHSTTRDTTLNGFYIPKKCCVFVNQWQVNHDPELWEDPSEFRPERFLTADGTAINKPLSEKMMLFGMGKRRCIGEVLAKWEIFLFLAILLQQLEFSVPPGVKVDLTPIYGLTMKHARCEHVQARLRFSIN

CYP2C9, sequence (P11712 whole entry): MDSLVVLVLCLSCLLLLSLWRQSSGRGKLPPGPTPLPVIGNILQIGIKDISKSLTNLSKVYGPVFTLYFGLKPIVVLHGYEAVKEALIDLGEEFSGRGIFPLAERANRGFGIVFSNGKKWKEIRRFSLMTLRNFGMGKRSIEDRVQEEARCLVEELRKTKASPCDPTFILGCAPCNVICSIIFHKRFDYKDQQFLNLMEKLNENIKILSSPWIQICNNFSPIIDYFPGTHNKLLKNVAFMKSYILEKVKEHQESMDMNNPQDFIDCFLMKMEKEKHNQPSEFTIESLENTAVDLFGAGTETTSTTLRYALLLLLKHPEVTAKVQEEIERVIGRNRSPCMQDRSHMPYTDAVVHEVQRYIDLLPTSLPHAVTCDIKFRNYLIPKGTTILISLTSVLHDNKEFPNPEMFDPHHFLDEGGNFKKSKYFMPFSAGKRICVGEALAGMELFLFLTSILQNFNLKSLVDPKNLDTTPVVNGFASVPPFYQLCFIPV
Method for CYP1A2: Inhibitor stock solutions prepared in appropriate solvents accounted for 0.4% organic solvent in the final incubation for 30 min at 37 °C with gentle shaking before stopping with 400 μL ice-cold stop solution (1:1 (v:v) mixture of acetonitrile and methanol) containing 50 ng/mL tolbutamide (IS). After vortexing for 30 seconds, and centrifugation at 16,000 g for 10 min, the supernatant was collected and analyzed by LC-MS/MS as described above. […] All incubations were conducted in triplicate.

With `Cc1ccc2cc3c(ccc4ccccc43)c3c2c1CC3` [3-MC, 3-methylcholanthrene], the “mean induction of CYP1A activity compared with control cells” value with CYP1A is on record as 23.8 fold.
On to `CCC1(c2ccccc2)C(=O)NC(=O)NC1=O` [PB, phenobarbital], for which the “mean induction of CYP3A activity compared with control cells” value with CYP3A is reported as 5.1 fold.
A word on the IC50: it is the concentration at which inhibition is half-maximal. For the compound `O=S(=O)(O)c1cc2c(O)c(c1)Sc1cc(S(=O)(=O)O)cc(c1O)Sc1cc(S(=O)(=O)O)cc(c1O)Sc1cc(S(=O)(=O)O)cc(c1O)S2` [TCAS, Thiacalix[4]arene tetrasulfonate], the IC50 in the series on CYP2C9 (2C9) was found to be 383 ± 23.5 µM; in the series with CYP3A4 (3A4), 2420 ± 235 µM; in the series with CYP2D6 (2D6), 196 ± 17.6 µM; with CYP2B6 (2B6), 1700 ± 103 µM.
In general, inhibition refers to the percentage by which the read-out fell short of the control. On CYP2C9, `Nc1ccc(S(=O)(=O)Nc2ccnn2-c2ccccc2)cc1` [sulfaphenazole] showed an inhibition at 30 min, 60 µM of 51.7%.
Regarding `O=c1cc(-c2ccccc2)oc2c1ccc1ccccc12` [α-Naphthoflavone], the inhibition at 30 min, 6 µM on CYP1A2 is 54.9%.

Source of the values: PMC4586642, “CYP450 Enzyme-Mediated Metabolism of TCAS and Its Inhibitory and Induced Effects on Metabolized Enzymes in Vitro” (International Journal of Environmental Research and Public …, 2015).
